{"source": "patent US6949533B2", "about": "“6,7-Oxygenated steroids and uses related thereto” (Inflazyme Pharmaceuticals Ltd., priority 1996, dated 2005)", "key": {"rabbit platelets": {"tested_on": "rabbit platelets", "experiment": "PAF-induced aggregation of rabbit platelets", "format": "cell-based", "settings": "Oryctolagus cuniculus, Platelet; 80 μM compound, 5 min preincubation; PAF-stimulated rabbit platelets (title: 0.1 nM PAF); read-out: % Inhibition at 80 μM", "description": "Within the present invention, it was discovered that the polyhydroxylated steroids as well as intermediates described in previous sections inhibited the aggregation of platelets caused by platelet activating factor (PAF). PAF is a local mediator of thrombosis and prevention of the formation of blood clots has direct implication in the treatment of thrombosis and associated cardiovascular diseases. The assay system used to evaluate the ability of compounds to inhibit the aggregation of platelets in response to exogenous stimuli is indicative of anti-thrombotic or thrombolytic activity.\nPlatelets were isolated from rabbit blood and prepared at a density of 2.4×10^8 cells/ml in Tyrodes buffer (pH 7.2) containing Ca^2+. Platelets were incubated with each compound for 5 min at 37° C. prior to stimulation. Platelets were stimulated with 1 nM platelet activating factor (PAF; EC75) in the presence of each of the compounds and aggregation was monitored for 5 min. Compounds were solubilized in dimethylsulfoxide (DMSO) and aggregation was measured as a percentage of the response to 1 nM PAF obtained in the presence of the appropriate concentration of DMSO. The degree of inhibition caused by each sample was calculated using the control response in the presence of DMSO equal to 100%."}, "[1]": {"tested_on": "passively sensitized rat mast cells (RBL-2H3)", "experiment": "antigen-induced release of hexosaminidase from RBL-2H3 cells", "format": "cell-based", "settings": "Rattus norvegicus, RBL-2H3, 25 μM compound; antigen-induced hexosaminidase release; read-out: Percentage Inhibition (mean) RBL-2H3 Cells", "procedure": "(§1) The anti-allergic effects of various polyhydroxylated steroids of the present invention were evaluated by measuring their effect on antigen-induced secretion of hexosaminidase from a passively sensitized rat mast cell line (RBL-2H3) and a murine mast cell line (MC/9). The ability of agents to inhibit the release of mast cell granule contents, e.g., histamine and hexosaminidase, is indicative of anti-allergy and/or anti-asthma activity.\n(§2) Hexosaminidase is released from the mast cell granule along with histamine and other mediators during antigen challenge. RBL-2H3 and MC/9 cells were grown in culture and passively sensitized to dinitrophenol (DNP) using anti-human-DNP (IgE). Cells were incubated with each compound (25 μM) for 1 hour at 37° C. and then stimulated with 0.1 mg/ml DNP-HSA (antigen) for 15 min. Aliquots of the supernatant were removed and used to measure the amount of hexosaminidase released during challenge with the antigen. The amount of hexosaminidase present in the supernatant was determined calorimetrically by monitoring the enzymatic metabolism of p-nitrophenyl-N-acetyl-β-D-glucosaminide (p-NAG) over a period of 1 hour at 410 nm. The effect of each compound was determined as a percentage of the antigen-induced response (minus background release) obtained in the presence of DMSO alone, as set forth in Tables 2 and 3. These values were used to determine the degrees of inhibition of antigen-induced hexosaminidase release from the cells."}, "mouse mast cells (MC/9)": {"tested_on": "mouse mast cells (MC/9)", "experiment": "antigen-induced release of hexosaminidase from MC/9 cells", "format": "cell-based", "settings": "Mus musculus, MC9, 25 μM compound, read-out: Percentage Inhibition (mean) MC/9 cells", "procedure": "as §1, §2"}, "[2]": {"tested_on": "Ascaris suum sensitized sheep", "experiment": "allergic sheep model of asthma", "format": "in vivo", "procedure": "The model is conscious, where the animals are breathing spontaneously, allowing measurement of airways bronchoconstriction and acute airway hyperresponsiveness.\nSheep which were naturally sensitized to Ascaris suum (30-40 Kg) were intubated with an endotracheal tube and a balloon catheter, positioned in the lower esophagus. Pleural pressure was estimated with the esophageal catheter, while later pressure was measured with a side-hole catheter advanced through and positioned distal to the tip of the endotracheal tube. Transpulmonary pressure differences between the trachea and pleural pressures were measured with a differential pressure transducer catheter system.\nThe proximal end of the endotracheal tube was connected to a Fleisch pneumotachograph in order to measure flow changes. Pulmonary resistance (RL) was calculated from pressure measurements of transpulmonary pressure, respiratory volume (from digital integration of the flow signal) and flow by the mid-flow technique. SRL was calculated as RL Vtg (Vtg=thoracic gas volume).\nAerosols generated using a disposable nebulizer, were directed into a T-piece connected to a Harvard respirator and the tracheal tube in series. The aerosol delivery was controlled using a dosimeter system, consisting of a solenoid valve and compressed air (20 psi) activated at the start of each inspiratory cycle. Aerosols were delivered in tidal volumes of 500 ml at […].\nSelected compounds from the invention were dissolved as a stock solution in DMSO and diluted in saline. Animals received either, 400 μg/Kg of compound 30 min prior to challenge and 4 hours after challenge, or 400 μg/Kg of compound for 4 days with the last dose 2 hours before challenge. Ascaris suum extract was diluted in phosphate buffered saline to a concentration of 82000 protein nitrogen units/ml and delivered by aerosol over 20 min. Carbachol was dissolved in PBS to concentrations of 0.25, 0.5 1.0, 2.0, 4.0% wt/vol. Each animal served as its own control throughout the study.\nSpecific lung resistance (SRL) was measured every 60 min for 8 hours after antigen challenge. Airways hyperresponsiveness to carbachol was measured 24 hours after the initial challenge."}, "NF-κB": {"tested_on": "NF-κB", "experiment": "NF-κB gel shift binding assay in TPA-stimulated RBL-2H3 cells", "format": "cell-based", "settings": "Rattus norvegicus, compound 1 μM, 2 hours preincubation, read-out: Percent Inhibition of Response to TPA (0.1 μM)"}, "[3]": {"settings": "400 μg/kg/day for 4 days, inhalation, Baseline"}}, "data": [{"smiles": "C/C=C1/CCC2C3C(CC[C@]12C)[C@@]1(C)CC[C@@H](O)CC1[C@@H](O)[C@@H]3O", "note": "(stereo partly drawn) [Compound 330, 3α,6α,7β-trihydroxy-17(20)-pregnene]", "values": [{"measurement": "inhibition at 80 µM", "setting": "rabbit platelets", "result": 20.9, "unit": "%"}, {"measurement": "inhibition at 25 µM", "setting": "[1]", "result": 59, "unit": "%"}, {"measurement": "inhibition at 25 µM", "setting": "mouse mast cells (MC/9)", "result": 49, "unit": "%"}, {"measurement": "PC400 Hyperresponsiveness to carbachol", "setting": "[2]; 400 μg/kg inhalation 30 min prior to and 4 hours after challenge, Baseline", "result": "26.01 ± 3.06", "unit": "Breath Units"}, {"measurement": "PC400 Hyperresponsiveness to carbachol", "setting": "[2]; 400 μg/kg inhalation 30 min prior to and 4 hours after challenge, Post-Challenge (24 hours)", "result": "22.79 ± 6.11", "unit": "Breath Units"}, {"measurement": "Specific Lung Resistance", "setting": "[2]; 400 μg/kg inhalation 30 min prior to and 4 hrs after challenge, 1 hr", "result": "117 ± 11", "unit": "% Baseline"}, {"measurement": "Specific Lung Resistance", "setting": "[2]; 400 μg/kg inhalation 30 min prior to and 4 hrs after challenge, 2 hr", "result": "49 ± 11", "unit": "% Baseline"}, {"measurement": "Specific Lung Resistance", "setting": "[2]; 400 μg/kg inhalation 30 min prior to and 4 hrs after challenge, 3 hr", "result": "32 ± 6", "unit": "% Baseline"}, {"measurement": "Specific Lung Resistance", "setting": "[2]; 400 μg/kg inhalation 30 min prior to and 4 hrs after challenge, 4 hr", "result": "20 ± 6", "unit": "% Baseline"}, {"measurement": "Specific Lung Resistance", "setting": "[2]; 400 μg/kg inhalation 30 min prior to and 4 hrs after challenge, 5 hr", "result": "14 ± 4", "unit": "% Baseline"}, {"measurement": "Specific Lung Resistance", "setting": "[2]; 400 μg/kg inhalation 30 min prior to and 4 hrs after challenge, 6 hr", "result": "14 ± 5", "unit": "% Baseline"}, {"measurement": "Specific Lung Resistance", "setting": "[2]; 400 μg/kg inhalation 30 min prior to and 4 hrs after challenge, 6.5 hr", "result": "18 ± 6", "unit": "% Baseline"}, {"measurement": "Specific Lung Resistance", "setting": "[2]; 400 μg/kg inhalation 30 min prior to and 4 hrs after challenge, 7 hr", "result": "10 ± 2", "unit": "% Baseline"}, {"measurement": "Specific Lung Resistance", "setting": "[2]; 400 μg/kg inhalation 30 min prior to and 4 hrs after challenge, 7.5 hr", "result": "17 ± 8", "unit": "% Baseline"}, {"measurement": "Specific Lung Resistance", "setting": "[2]; 400 μg/kg inhalation 30 min prior to and 4 hrs after challenge, 8 hr", "result": "5 ± 3", "unit": "% Baseline"}, {"measurement": "Specific Lung Resistance", "setting": "[2]; 400 μg/kg inhalation 30 min prior to and 4 hrs after challenge, Baseline", "result": "2 ± 5", "unit": "% Baseline"}, {"measurement": "Specific Lung Resistance", "setting": "[2]; 400 μg/kg inhalation 30 min prior to and 4 hrs after challenge, Challenge (0)", "result": "268 ± 35", "unit": "% Baseline"}, {"measurement": "Specific Lung Resistance", "setting": "[2]; 400 μg/kg inhalation 30 min prior to and 4 hrs after challenge, −0.5 hr", "result": "0 ± 4", "unit": "% Baseline"}, {"measurement": "Specific Lung Resistance", "setting": "[2]; 400 μg/kg/day for 4 days, inhalation, 1 hr", "result": "34.00 ± 10.75", "unit": "% Baseline"}, {"measurement": "Specific Lung Resistance", "setting": "[2]; 400 μg/kg/day for 4 days, inhalation, 2 hr", "result": "11.50 ± 6.18", "unit": "% Baseline"}, {"measurement": "Specific Lung Resistance", "setting": "[2]; 400 μg/kg/day for 4 days, inhalation, 3 hr", "result": "−15.00 ± 37.67", "unit": "% Baseline"}, {"measurement": "Specific Lung Resistance", "setting": "[2]; 400 μg/kg/day for 4 days, inhalation, 4 hr", "result": "4.00 ± 1.78", "unit": "% Baseline"}, {"measurement": "Specific Lung Resistance", "setting": "[2]; 400 μg/kg/day for 4 days, inhalation, 5 hr", "result": "−4.50 ± 4.17", "unit": "% Baseline"}, {"measurement": "Specific Lung Resistance", "setting": "[2]; 400 μg/kg/day for 4 days, inhalation, 6 hr", "result": "7.75 ± 9.75", "unit": "% Baseline"}, {"measurement": "Specific Lung Resistance", "setting": "[2]; 400 μg/kg/day for 4 days, inhalation, 6.5 hr", "result": "5.50 ± 4.87", "unit": "% Baseline"}, {"measurement": "Specific Lung Resistance", "setting": "[2]; 400 μg/kg/day for 4 days, inhalation, 7 hr", "result": "10.75 ± 4.91", "unit": "% Baseline"}, {"measurement": "Specific Lung Resistance", "setting": "[2]; 400 μg/kg/day for 4 days, inhalation, 7.5 hr", "result": "4.00 ± 2.35", "unit": "% Baseline"}, {"measurement": "Specific Lung Resistance", "setting": "[2]; 400 μg/kg/day for 4 days, inhalation, 8 hr", "result": "3.25 ± 4.73", "unit": "% Baseline"}, {"measurement": "PC400 Hyperresponsiveness to carbachol", "setting": "[2]; [3]", "result": "21.26 ± 2.75", "unit": "Breath Units"}, {"measurement": "Specific Lung Resistance", "setting": "[2]; [3]", "result": "5.25 ± 4.50", "unit": "% Baseline"}, {"measurement": "Specific Lung Resistance", "setting": "[2]; 400 μg/kg/day for 4 days, inhalation, Challenge (0)", "result": "126.00 ± 19.11", "unit": "% Baseline"}, {"measurement": "PC400 Hyperresponsiveness to carbachol", "setting": "[2]; 400 μg/kg/day for 4 days, inhalation, Post-Challenge (24 hours)", "result": "21.21 ± 3.10", "unit": "Breath Units"}, {"measurement": "Specific Lung Resistance", "setting": "[2]; 400 μg/kg/day for 4 days, inhalation, −0.5 hr", "result": "−3.75 ± 4.29", "unit": "% Baseline"}, {"measurement": "inhibition at 1 µM", "setting": "NF-κB", "result": 66, "unit": "%"}]}]}
